Tests used:
Assay type in all cases: biochemical
Rabbit LDL = assay: Amount of TBARS (Cu^2+-induced oxidation of rabbit LDL); details: 5 μM Cu^2+
Method: Rabbit LDL was prepared in accordance with the method of Havel et al. [Havel, R. J. et al., J. Clin. Invest., 34, (1955)]. After adding 5 μM of Cu^2+, the mixture was warmed until a thiobarbituric acid reactive substance (TBARS) was produced. The test compounds were evaluated for their anti-oxidative action with the amount of TBARS being used as an index. [formula]

[1] = target: lipid peroxidation due to the autoxidation of linoleic acid; assay: Linoleic acid-MCLA system, Test Case 4; details: linoleic acid 10 mM, MCLA 2 μM, 1-butanol, 37° C.; read-out: 50% inhibition concentration
Method: The test compounds were evaluated for their inhibitory effect against lipid peroxidation due to the autoxidation of linoleic acid.
A reaction solution was prepared by mixing linoleic acid and MCLA (2-methyl-6-(p-methoxyphenyl)-3,7-dihydroimidazo[1,2-a]pyrazin-3-one) in 1-butanol and stored in ice until use. An amount of this reaction solution was sampled in a chemiluminescence measuring cell and, immediately thereafter, the intensity of chemiluminescence due to the autoxidation of linoleic acid was measured at 37° C. in a thermostatic bath. A normal chemiluminescence intensity measurement was conducted about 2-4 min later when the chemiluminescence substantially peaked.

[2] = test system: xanthine oxidase (XOD)-hypoxanthine (HX) system (superoxide); assay: Xanthine oxidase system (superoxide generating system); details: pH 7.4, 37° C.
Method: The test compounds were evaluated under the following conditions for their effect in a reaction due to a xanthine oxidase (XOD)-hypoxanthine (HX) system in aqueous solution.
Xanthine oxidase 0.1 U/ml
Hepes buffer solution (pH 7.4)
(§1) A reaction solution was prepared by mixing hypoxanthine and luminol in the Hepes buffer solution and stored in ice until use. After warming the reaction solution at 37° C. for about 10 min, the reaction was started by addition of the xanthine oxidase solution. A measurement was started right after the addition of xanthine oxidase and subsequent stirring; chemiluminescence intensity was normally measured right after the start of the reaction. In the experimental model, luminol-dependent chemiluminescence induced by superoxide generated by enzymatic reaction of xanthine oxidase was detected, thus enabling the measurement of the reactivity with superoxide.

[3] = test system: lactoperoxidase reaction system (singlet oxygen); assay: Lactoperoxidase system (singlet oxygen system); details: pH 4.5, 37° C.
Method: The test compounds were evaluated under the following conditions for their effect against a lactoperoxidase reaction system.
Lactoperoxidase 10 μg/ml
Acetate buffer solution (pH 4.5)
as §1, with “hydrogen peroxide, sodium bromide” for “hypoxanthine”, “acetate” for “Hepes”, “lactoperoxidase” for “xanthine oxidase”, “was” for “was normally”, “singlet oxygen” for “superoxide”, “singlet oxygen.” for “superoxide.”

Chemiluminescence intensity (% of control) ([2]; at 20 μM of compound) | Chemiluminescence intensity (% of control) ([2]; at 200 μM of compound) | Chemiluminescence intensity (% of control) ([3]; at 20 μM of compound) | Chemiluminescence intensity (% of control) ([3]; at 200 μM of compound) | SMILES | TBARS produced (%) (Rabbit LDL; at 10^-5 M of compound, 10 µM) | TBARS produced (%) (Rabbit LDL; at 10^-6 M of compound, 1 µM) | IC50 [1]
– | – | – | – | CC(C)(C)c1cc2occc2c(C(C)(C)C)c1O [Compound r, 4,6-Di-tert-Butyl-5-Hydroxybenzofuran] | 30.1% | 74.2% | –
– | – | – | – | CC(C)(C)c1cc2c(c(C(C)(C)C)c1O)CC(Cc1ccccc1)(Cc1ccccc1)O2 [Compound k, 4,6-Di-tert-Butyl-2,2-Dibenzyl-5-Hydroxy-2,3-Dihydrobenzofuran] | 11.1% | 93.0% | –
– | – | – | – | CC1(C)Cc2c(cc(C(C)(C)C)c(O)c2C(C)(C)C)O1 [Compound c, 5-Hydroxy-4,6-Di-tert-Butyl-2,2-Dimethyl-2,3-Dihydrobenzofuran] | 9.2% | 55.3% | 7 µM
– | – | – | – | Cc1cc2c(C(C)(C)C)c(O)c(C(C)(C)C)cc2o1 [Compound s, 4,6-Di-tert-Butyl-5-Hydroxy-2-Methylbenzofuran] | 39.2% | 75.7% | –
– | – | – | – | CCCOc1cc(C(C)(C)C)c(O)c(C(C)(C)C)c1C [Compound u, 2,6-Di-tert-Butyl-3-Methyl-4-Propyloxyphenol] | 47.3% | 87.7% | –
84.5 % of control | 85.6 % of control | – | – | CCCCCC1(CCCCC)Cc2c(cc(C(C)(C)C)c(O)c2C(C)(C)C)O1 [Compound x, 4,6-Di-tert-Butyl-2,2-Di-n-Pentyl-5-Hydroxy-2,3-Dihydrobenzofuran] | 42.1% | 96.3% | 5 µM
– | – | – | – | CCCC1(CCC)Cc2c(cc(C(C)(C)C)c(O)c2C(C)(C)C)O1 [Compound e, 4,6-Di-tert-Butyl-2,2-Di-n-Propyl-5-Hydroxy-2,3-Dihydrobenzofuran] | 13.5% | 86.3% | –
23.9 % of control | 6.3 % of control | 77.6 % of control | 6.0 % of control | CC(C)(C)c1c(O)ccc2c1CCO2 [Comparison 1, reference compound] | – | – | 62 µM
– | – | – | – | CC(C)C1(C(C)C)Cc2c(cc(C(C)(C)C)c(O)c2C(C)(C)C)O1 [Compound i, 4,6-Di-tert-Butyl-2,2-Di-i-Propyl-5-Hydroxy-2,3-Dihydrobenzofuran] | 10.3% | 90.8% | –
– | – | – | – | CC(C)(C)c1cc2c(C(C)(C)C)c(O)c(C(C)(C)C)cc2o1 [Compound t, 2,4,6-Tri-tert-Butyl-5-Hydroxybenzofuran] | 68.0% | 81.7% | –
– | – | – | – | CC(C)(C)c1c(O)ccc2c1CC(CO)O2 (centres unmarked) [Comparison 3, reference compound] | – | – | 54 µM
– | – | – | – | C=CCOc1cc(C(C)(C)C)c(O)c(C(C)(C)C)c1C [Compound v, 4-Allyloxy-2,6-Di-tert-Butyl-3-Methylphenol] | 80.3% | 99.3% | –
88.6 % of control | 104.8 % of control | 97.0 % of control | 76.0 % of control | CCCCCCCCC1Cc2c(cc(C(C)(C)C)c(O)c2C(C)(C)C)O1 (centres unmarked) [Compound g, 4,6-Di-tert-Butyl-5-Hydroxy-2-Octyl-2,3-Dihydrobenzofuran] | 8.8% | 82.6% | –
94.2 % of control | 110.2 % of control | – | – | CCCCCCCCC1(CCCCCCCC)Cc2c(cc(C(C)(C)C)c(O)c2C(C)(C)C)O1 [Compound y, 4,6-Di-tert-Butyl-2,2-Di-n-Octyl-5-Hydroxy-2,3-Dihydrobenzofuran] | 72.3% | 85.4% | –
– | – | – | – | CC(C)(C)c1cc2c(c(C(C)(C)C)c1O)CC1(CCCCCC1)O2 [Compound o, 4,6-Di-tert-Butyl-5-Hydroxy-2,3-Dihydrobenzofuran-2-Spiro-1'-Cycloheptane] | 9.0% | 91.2% | –
– | – | – | – | Cc1c(OCCCOc2cc(C(C)(C)C)c(O)c(C(C)(C)C)c2C)cc(C(C)(C)C)c(O)c1C(C)(C)C [Compound w, 1,3-Bis(3,5-Di-tert-Butyl-4-Hydroxy-2-Methylphenoxy)propane] | 17.2% | 71.3% | –
99.2 % of control | 107.5 % of control | – | – | CC(C)CCC1(CCC(C)C)Cc2c(cc(C(C)(C)C)c(O)c2C(C)(C)C)O1 [Compound z, 2,2-Diisoamyl-4,6-Di-tert-Butyl-5-Hydroxy-2,3-Dihydrobenzofuran] | 22.9% | 77.5% | 6 µM
100.3 % of control | 104.9 % of control | – | – | CC(C)(C)c1cc2c(c(C(C)(C)C)c1O)CC1(CCCCC1)O2 [Compound n, 4,6-Di-tert-Butyl-5-Hydroxy-2,3-Dihydrobenzofuran-2-Spiro-1'-cyclohexane] | 15.6% | 76.2% | 9 µM
– | – | – | – | CC1Cc2c(cc(C(C)(C)C)c(O)c2C(C)(C)C)O1 (centres unmarked) [Compound b, 4,6-Di-tert-Butyl-5-Hydroxy-2-Methyl-2,3-Dihydrobenzofuran] | 8.9% | 53.8% | –
– | – | – | – | CC(C)(C)c1cc2c(cc1O)CC(C(C)(C)C)O2 (centres unmarked) [Comparison 4, reference compound] | – | – | 42 µM
– | – | – | – | CC(C)(C)c1cc2c(c(C(C)(C)C)c1O)CC(CCl)O2 (centres unmarked) [l, 4,6-tert-Butyl-2-Chloromethyl-5-Hydroxy-2,3-Dihydrobenzofuran] | 8.1% | 11.5% | –
– | – | – | – | CCC1(CC)Cc2c(cc(C(C)(C)C)c(O)c2C(C)(C)C)O1 [Compound d, 4,6-Di-tert-Butyl-2,2-Diethyl-5-Hydroxy-2,3-Dihydrobenzofuran] | 9.4% | 76.9% | –
83.1 % of control | 89.8 % of control | – | – | CC(C)(C)c1cc2c(c(C(C)(C)C)c1O)CC1(CCCC1)O2 [Compound m, 4,6-Di-tert-Butyl-5-Hydroxy-2,3-Dihydrobenzofuran-2-Spiro-1'-Cyclopentane] | 11.8% | 85.3% | 7 µM
– | – | – | – | CC(C)(C)c1cc2c(c(C(C)(C)C)c1O)CC(C(C)(C)C)O2 (centres unmarked) [Compound h, 2,4,6-Tri-tert-Butyl-5-Hydroxy-2,3-Dihydrobenzofuran] | 10.6% | 74.0% | 9 µM
– | – | – | – | CC(C)(C)c1cc2c(c(C(C)(C)C)c1O)CC1(CCCCCCC1)O2 [Compound p, 4,6-Di-tert-Butyl-5-Hydroxy-2,3-Dihydrobenzofuran-2-Spiro-1'-Cyclooctane] | 22.0% | 91.8% | –
– | – | 104.0 % of control | 73.4 % of control | CCCc1c2c(c(C(C)(C)C)c(O)c1C(C)(C)C)CC(C)(C)O2 [q, 5-Hydroxy-4,6-Di-tert-Butyl-2,2-Dimethyl-7-Propyl-2,3-Dihydrobenzofuran] | 56.8% | 97.4% | 5 µM
91.0 % of control | 102.4 % of control | – | – | CCCCC1(CCCC)Cc2c(cc(C(C)(C)C)c(O)c2C(C)(C)C)O1 [Compound f, 4,6-Di-tert-Butyl-2,2-Di-n-Butyl-5-Hydroxy-2,3-Dihydrobenzofuran] | 12.2% | 81.6% | 8 µM
– | – | – | – | CC(C)(C)c1cc2c(c(C(C)(C)C)c1O)CC(c1ccccc1)(c1ccccc1)O2 [Compound j, 4,6-Di-tert-Butyl-2,2-Diphenyl-5-Hydroxy-2,3-Dihydrobenzofuran] | 11.6% | 93.1% | –
